Consider 2 compounds from PMC9030254, “Target Hopping from Protein Kinases to PXR: Identification of Small-Molecule Protein Kinase Inhibitors as Selective Modulators of Pregnane X Receptor from TüKIC Library” (Cells, 2022).

Common to all, as to assay: Kinase profiling
Type in all cases: biochemical

Assay [1] deals with T1, EPHA5 (Homo sapiens, UniProt P54756).
T1 construct: purchased ProQinase (Freiburg, Germany)
How it is done:
(§1) The analysis was performed by ProQinase (Freiburg, Germany).

Assay [2] concerns the target T2, JAK2 (Homo sapiens, UniProt O60674).
T2 construct: purchased ProQinase (Freiburg, Germany)
The method, then:
as §1

Assay [3] deals with T3, FAK (Homo sapiens, UniProt Q05397).
T3 construct: purchased ProQinase (Freiburg, Germany)
How it is done: as §1

In assay [4] the target is T4, GRK3 (Homo sapiens, UniProt P35626).
T4 construct: purchased ProQinase (Freiburg, Germany)
T4 sequence (P35626 1-688): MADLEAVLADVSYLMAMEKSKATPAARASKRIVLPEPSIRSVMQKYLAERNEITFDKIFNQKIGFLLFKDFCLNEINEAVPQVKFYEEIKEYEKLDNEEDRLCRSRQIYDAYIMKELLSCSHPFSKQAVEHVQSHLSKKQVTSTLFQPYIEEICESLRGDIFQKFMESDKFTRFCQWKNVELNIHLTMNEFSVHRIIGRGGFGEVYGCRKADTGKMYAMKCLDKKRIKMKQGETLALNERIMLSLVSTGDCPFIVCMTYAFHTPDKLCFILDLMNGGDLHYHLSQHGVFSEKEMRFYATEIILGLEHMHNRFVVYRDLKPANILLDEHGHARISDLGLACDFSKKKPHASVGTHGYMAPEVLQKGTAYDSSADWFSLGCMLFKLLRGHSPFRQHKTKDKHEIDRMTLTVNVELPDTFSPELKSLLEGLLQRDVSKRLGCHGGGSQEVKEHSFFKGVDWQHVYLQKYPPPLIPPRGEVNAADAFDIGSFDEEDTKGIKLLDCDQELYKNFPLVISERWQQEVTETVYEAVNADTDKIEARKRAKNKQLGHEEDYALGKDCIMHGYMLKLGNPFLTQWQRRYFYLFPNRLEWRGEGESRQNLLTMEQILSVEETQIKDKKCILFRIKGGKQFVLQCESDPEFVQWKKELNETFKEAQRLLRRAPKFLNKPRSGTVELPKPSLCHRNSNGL
How it is done:
as §1

For assay [5], the target named is T5, EPHA1 (Homo sapiens, UniProt P21709).
T5 construct: purchased ProQinase (Freiburg, Germany)
T5 sequence (P21709 26-976): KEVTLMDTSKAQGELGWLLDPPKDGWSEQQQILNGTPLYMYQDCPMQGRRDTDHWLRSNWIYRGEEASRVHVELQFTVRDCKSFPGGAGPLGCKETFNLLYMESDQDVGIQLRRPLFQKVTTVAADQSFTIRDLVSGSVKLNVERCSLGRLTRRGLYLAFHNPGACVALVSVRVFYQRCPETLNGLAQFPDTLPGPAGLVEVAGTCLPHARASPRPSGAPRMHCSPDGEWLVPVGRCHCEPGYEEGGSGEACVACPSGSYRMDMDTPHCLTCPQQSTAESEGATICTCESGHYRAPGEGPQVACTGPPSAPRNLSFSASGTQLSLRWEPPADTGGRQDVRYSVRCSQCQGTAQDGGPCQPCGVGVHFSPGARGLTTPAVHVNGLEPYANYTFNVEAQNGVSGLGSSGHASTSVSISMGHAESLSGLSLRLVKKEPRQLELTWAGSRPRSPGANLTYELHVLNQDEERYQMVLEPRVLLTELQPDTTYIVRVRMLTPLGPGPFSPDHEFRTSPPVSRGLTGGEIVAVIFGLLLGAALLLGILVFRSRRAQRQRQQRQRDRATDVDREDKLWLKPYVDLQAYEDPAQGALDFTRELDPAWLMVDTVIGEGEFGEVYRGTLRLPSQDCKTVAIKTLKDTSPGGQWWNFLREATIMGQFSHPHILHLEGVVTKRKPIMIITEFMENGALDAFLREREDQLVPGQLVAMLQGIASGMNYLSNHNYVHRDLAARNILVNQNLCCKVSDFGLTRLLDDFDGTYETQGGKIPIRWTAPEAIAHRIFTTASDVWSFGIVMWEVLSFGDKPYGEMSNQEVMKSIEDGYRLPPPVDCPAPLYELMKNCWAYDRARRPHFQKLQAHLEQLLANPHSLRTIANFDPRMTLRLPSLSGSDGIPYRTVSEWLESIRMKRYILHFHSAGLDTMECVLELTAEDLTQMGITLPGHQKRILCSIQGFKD
The method, then:
as §1

The target in assay [6] is T6, NIK (Homo sapiens, UniProt Q99558).
T6 construct: purchased ProQinase (Freiburg, Germany)
How it is done: as §1

Assay [7] concerns the target T7, WNK3 (Homo sapiens, UniProt Q9BYP7).
T7 construct: purchased ProQinase (Freiburg, Germany)
How it is done: as §1

Assay [8] concerns the target T8, CAMK4 (Homo sapiens, UniProt Q16566).
T8 construct: purchased ProQinase (Freiburg, Germany)
T8 sequence (Q16566 1-473): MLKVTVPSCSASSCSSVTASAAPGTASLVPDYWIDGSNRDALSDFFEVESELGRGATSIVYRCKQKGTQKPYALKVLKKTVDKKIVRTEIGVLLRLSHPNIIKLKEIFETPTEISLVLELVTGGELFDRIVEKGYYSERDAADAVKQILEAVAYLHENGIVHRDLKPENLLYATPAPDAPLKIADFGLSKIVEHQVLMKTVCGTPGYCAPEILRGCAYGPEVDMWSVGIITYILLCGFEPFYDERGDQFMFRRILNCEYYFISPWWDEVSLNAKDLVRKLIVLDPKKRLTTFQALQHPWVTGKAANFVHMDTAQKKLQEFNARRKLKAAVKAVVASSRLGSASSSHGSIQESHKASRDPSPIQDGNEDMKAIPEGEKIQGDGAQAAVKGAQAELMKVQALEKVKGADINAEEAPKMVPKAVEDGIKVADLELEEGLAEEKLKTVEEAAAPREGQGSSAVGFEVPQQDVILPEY
The method, then: as §1

T3 sequence (Q05397 whole entry): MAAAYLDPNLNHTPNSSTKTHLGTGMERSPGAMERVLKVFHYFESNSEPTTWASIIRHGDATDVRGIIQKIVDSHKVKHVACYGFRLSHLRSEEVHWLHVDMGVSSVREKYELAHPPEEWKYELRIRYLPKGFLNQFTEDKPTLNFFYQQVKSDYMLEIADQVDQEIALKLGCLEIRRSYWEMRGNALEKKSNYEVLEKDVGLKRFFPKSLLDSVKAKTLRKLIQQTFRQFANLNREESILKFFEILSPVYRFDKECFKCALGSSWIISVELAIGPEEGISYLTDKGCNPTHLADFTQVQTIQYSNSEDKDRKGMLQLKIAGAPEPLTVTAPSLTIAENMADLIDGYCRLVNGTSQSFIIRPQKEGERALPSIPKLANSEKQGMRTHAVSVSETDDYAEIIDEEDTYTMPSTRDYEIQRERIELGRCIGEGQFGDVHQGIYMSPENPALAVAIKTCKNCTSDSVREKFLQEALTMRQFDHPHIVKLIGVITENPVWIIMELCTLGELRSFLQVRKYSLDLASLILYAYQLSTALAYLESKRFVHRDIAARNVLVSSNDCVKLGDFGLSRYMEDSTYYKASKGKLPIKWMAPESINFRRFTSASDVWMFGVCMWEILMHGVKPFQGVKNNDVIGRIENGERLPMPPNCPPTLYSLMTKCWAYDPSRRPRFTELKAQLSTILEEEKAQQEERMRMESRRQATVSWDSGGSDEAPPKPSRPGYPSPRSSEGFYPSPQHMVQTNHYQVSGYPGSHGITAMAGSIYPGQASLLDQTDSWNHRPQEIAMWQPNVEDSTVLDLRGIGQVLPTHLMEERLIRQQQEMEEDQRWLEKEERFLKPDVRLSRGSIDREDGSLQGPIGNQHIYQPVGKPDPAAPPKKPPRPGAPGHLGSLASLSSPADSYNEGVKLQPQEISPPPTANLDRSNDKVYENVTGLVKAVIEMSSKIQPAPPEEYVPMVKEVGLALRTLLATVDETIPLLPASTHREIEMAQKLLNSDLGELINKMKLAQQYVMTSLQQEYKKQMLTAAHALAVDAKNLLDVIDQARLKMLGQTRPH
T1 sequence (P54756 25-1037): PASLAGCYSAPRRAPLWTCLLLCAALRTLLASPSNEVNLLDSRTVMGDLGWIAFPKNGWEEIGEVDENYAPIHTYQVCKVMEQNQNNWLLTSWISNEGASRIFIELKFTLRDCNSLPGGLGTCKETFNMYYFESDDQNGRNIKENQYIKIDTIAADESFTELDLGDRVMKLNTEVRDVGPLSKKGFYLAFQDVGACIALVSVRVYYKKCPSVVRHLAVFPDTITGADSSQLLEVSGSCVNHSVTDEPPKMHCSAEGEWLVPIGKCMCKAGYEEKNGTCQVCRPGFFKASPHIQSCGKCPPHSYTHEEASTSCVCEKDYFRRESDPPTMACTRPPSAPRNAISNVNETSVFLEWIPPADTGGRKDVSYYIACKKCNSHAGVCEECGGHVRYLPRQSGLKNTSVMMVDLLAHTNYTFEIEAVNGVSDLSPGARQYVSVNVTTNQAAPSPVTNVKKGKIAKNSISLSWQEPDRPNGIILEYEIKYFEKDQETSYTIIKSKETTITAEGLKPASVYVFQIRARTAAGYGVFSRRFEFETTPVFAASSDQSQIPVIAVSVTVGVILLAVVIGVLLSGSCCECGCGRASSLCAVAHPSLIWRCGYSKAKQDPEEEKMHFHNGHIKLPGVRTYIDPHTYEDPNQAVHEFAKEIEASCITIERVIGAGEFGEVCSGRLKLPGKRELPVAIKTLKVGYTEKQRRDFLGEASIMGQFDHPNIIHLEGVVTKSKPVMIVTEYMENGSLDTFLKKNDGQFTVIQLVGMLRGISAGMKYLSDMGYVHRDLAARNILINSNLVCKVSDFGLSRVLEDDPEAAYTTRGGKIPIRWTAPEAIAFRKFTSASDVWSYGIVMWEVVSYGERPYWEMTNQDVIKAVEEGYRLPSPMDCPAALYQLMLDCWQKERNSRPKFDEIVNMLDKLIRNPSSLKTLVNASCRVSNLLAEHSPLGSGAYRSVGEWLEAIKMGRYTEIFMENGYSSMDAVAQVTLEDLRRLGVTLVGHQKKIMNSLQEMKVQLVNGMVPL
T2 sequence (O60674 whole entry): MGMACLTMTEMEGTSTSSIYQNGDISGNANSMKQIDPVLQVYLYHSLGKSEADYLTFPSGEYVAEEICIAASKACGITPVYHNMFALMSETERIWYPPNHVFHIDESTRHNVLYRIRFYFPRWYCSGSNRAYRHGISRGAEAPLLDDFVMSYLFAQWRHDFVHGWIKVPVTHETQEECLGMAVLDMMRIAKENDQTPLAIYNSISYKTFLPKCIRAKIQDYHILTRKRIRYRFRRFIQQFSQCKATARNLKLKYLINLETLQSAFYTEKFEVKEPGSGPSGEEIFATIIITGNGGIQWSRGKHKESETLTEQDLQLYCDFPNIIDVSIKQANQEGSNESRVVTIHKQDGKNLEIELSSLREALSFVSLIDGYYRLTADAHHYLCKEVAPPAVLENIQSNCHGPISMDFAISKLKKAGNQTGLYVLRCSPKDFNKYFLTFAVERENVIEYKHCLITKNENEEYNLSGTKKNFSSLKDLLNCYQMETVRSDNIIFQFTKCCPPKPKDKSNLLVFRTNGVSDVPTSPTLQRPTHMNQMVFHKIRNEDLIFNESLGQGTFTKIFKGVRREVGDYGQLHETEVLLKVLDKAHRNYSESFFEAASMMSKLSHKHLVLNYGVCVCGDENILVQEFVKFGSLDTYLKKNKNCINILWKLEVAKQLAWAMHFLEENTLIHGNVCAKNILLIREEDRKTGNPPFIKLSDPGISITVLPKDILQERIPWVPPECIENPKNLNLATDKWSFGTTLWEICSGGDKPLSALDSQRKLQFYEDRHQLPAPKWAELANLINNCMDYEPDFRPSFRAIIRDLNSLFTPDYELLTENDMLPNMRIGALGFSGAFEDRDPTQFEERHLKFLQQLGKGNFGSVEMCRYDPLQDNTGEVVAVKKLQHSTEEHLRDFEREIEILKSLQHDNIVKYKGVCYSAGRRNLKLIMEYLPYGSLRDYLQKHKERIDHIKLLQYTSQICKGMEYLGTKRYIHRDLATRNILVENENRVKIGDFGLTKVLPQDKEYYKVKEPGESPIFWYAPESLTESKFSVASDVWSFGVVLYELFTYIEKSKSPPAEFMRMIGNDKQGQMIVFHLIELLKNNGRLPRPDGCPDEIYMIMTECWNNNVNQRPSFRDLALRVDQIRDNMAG
T6 sequence (Q99558 whole entry): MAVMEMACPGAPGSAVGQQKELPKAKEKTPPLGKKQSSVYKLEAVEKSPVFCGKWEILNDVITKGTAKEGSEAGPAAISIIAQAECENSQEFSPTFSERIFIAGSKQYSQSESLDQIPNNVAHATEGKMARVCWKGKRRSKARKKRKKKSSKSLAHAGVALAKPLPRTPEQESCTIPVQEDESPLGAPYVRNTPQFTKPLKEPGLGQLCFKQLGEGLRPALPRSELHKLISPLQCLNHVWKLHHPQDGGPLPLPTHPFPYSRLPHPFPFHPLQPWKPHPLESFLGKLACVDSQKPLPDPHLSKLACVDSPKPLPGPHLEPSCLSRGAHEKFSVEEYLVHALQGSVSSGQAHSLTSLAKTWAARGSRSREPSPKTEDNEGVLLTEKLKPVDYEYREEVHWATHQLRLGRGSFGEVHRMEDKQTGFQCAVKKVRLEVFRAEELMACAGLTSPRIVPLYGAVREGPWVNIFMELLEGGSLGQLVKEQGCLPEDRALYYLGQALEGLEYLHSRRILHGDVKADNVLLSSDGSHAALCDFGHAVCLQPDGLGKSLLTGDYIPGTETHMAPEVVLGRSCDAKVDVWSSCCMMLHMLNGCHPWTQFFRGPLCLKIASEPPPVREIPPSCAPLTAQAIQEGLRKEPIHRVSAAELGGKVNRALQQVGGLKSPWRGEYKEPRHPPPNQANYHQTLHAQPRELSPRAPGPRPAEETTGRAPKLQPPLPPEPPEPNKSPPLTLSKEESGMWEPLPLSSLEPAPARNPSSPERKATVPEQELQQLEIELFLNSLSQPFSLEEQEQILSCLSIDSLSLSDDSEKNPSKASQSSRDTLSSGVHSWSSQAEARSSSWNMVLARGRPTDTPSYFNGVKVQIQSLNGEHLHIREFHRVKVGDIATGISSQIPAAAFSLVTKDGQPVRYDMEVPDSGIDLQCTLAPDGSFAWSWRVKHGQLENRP

As for `O=C(Nc1ccc(F)c(Nc2ccc3c(c2)CCCCC3=O)c1)c1cccc(F)c1` [Compound 109], the Residual activity in assay [1] (1.0E-05 M) is given as 60 % of control; in assay [1] (1.0E-06 M), 93 % of control; in assay [2] (1.0E-05 M) it was 89 % of control; in assay [2] (1.0E-06 M) it was 90 % of control; in assay [3] (1.0E-05 M) it was 88 % of control; in assay [3] (1.0E-06 M), 104 % of control. Besides, the Residual activity is on record as 138 % of control in assay [4] (1.0E-05 M); 122 % of control in assay [4] (1.0E-06 M); 85 % of control in assay [5] (1.0E-05 M); 91 % of control in assay [5] (1.0E-06 M); 103 % of control in assay [6] (1.0E-05 M); 103 % of control in assay [6] (1.0E-06 M). For the same compound, the Residual activity in assay [7] (1.0E-05 M) is 104 % of control; in assay [7] (1.0E-06 M), 93 % of control; in assay [8] (1.0E-05 M), 89 % of control; in assay [8] (1.0E-06 M), 97 % of control.
As to `O=C(Cc1ccccc1)Nc1ccc(F)c(Nc2ccc3c(c2)CCCCC3=O)c1` [Compound 100], the Residual activity was 67 % of control in assay [1] (1.0E-05 M); 96 % of control in assay [1] (1.0E-06 M); 85 % of control in assay [2] (1.0E-05 M); 94 % of control in assay [2] (1.0E-06 M); 88 % of control in assay [3] (1.0E-05 M); 116 % of control in assay [3] (1.0E-06 M). In addition, the Residual activity is listed as 144 % of control in assay [4] (1.0E-05 M); 118 % of control in assay [4] (1.0E-06 M); 71 % of control in assay [5] (1.0E-05 M); 83 % of control in assay [5] (1.0E-06 M); 103 % of control in assay [6] (1.0E-05 M); 93 % of control in assay [6] (1.0E-06 M). Besides, the Residual activity is given as 109 % of control in assay [7] (1.0E-05 M), 107 % of control in assay [7] (1.0E-06 M), 97 % of control in assay [8] (1.0E-05 M) and 102 % of control in assay [8] (1.0E-06 M).
